According to the NIST ThermoML archive (doi:10.1021/je8002699):

Key:
[1] = xn = mol fraction of the nth substance listed; settings: for mass density / speed of sound / viscosity: 101 kPa, Liquid
[2] = refractive index (Na D-line) (dimensionless); xn = mol fraction of the nth substance listed; settings: 101 kPa, Liquid

CC(=O)CC(C)(C)O [4-hydroxy-4-methylpentan-2-one] + CCc1ccccc1
Settings | mass density, [1] [kg/m3] | refractive index, [2] | speed of sound, [1] [m/s] | surface tension liquid-gas, [1] [mN/m] | viscosity, [1] [mPa·s]
303.15 K, x1 = 0.1814 | 880.9 | 1.4864 | 1322 | 29.92 | 1.02
303.15 K, x1 = 0.2621 | 886.6 | 1.4813 | 1316 | 29.88 | 1.191
303.15 K, x1 = 0.3445 | 892.5 | 1.4753 | 1311 | 29.84 | 1.35
303.15 K, x1 = 0.4219 | 898 | 1.4701 | 1305 | 29.8 | 1.511
303.15 K, x1 = 0.5447 | 906.5 | 1.4599 | 1296 | 29.76 | 1.752
303.15 K, x1 = 0.6624 | 914.7 | 1.4505 | 1286 | 29.71 | 2.001
303.15 K, x1 = 0.7667 | 922 | 1.4425 | 1277 | 29.62 | 2.266
303.15 K, x1 = 0.8388 | 926.5 | 1.4373 | 1271 | 29.58 | 2.433
303.15 K, x1 = 0.9219 | 931.5 | 1.43 | 1264 | 29.5 | 2.66
303.15 K, x1 = 1 | 936 | 1.4239 | 1256 | 29.44 | 2.89
313.15 K, x1 = 0.1814 | 856 | 1.479 | 1271 | 29.04 | 0.9211
313.15 K, x1 = 0.2621 | 861.8 | 1.4741 | 1265 | 29.04 | 1.066
313.15 K, x1 = 0.3445 | 867.8 | 1.469 | 1257 | 29.03 | 1.234
313.15 K, x1 = 0.4219 | 873.3 | 1.4637 | 1250 | 29.03 | 1.4
313.15 K, x1 = 0.5447 | 882.2 | 1.454 | 1237 | 29.03 | 1.501
313.15 K, x1 = 0.6624 | 890.8 | 1.4458 | 1224 | 29.03 | 1.688
313.15 K, x1 = 0.7667 | 897.5 | 1.4384 | 1212 | 29.03 | 1.911
313.15 K, x1 = 0.8388 | 902.2 | 1.4335 | 1204 | 29 | 2.377
313.15 K, x1 = 0.9219 | 907.6 | 1.4264 | 1194 | 28.95 | 2.511
313.15 K, x1 = 1 | 912.1 | 1.4198 | 1183 | 28.92 | 2.791
323.15 K, x1 = 0.1814 | 845.9 | 1.4721 | 1192 | 27.97 | 0.7842
323.15 K, x1 = 0.2621 | 851.6 | 1.4675 | 1186 | 27.9 | 0.8814
323.15 K, x1 = 0.3445 | 857.5 | 1.4624 | 1180 | 27.82 | 0.9901
323.15 K, x1 = 0.4219 | 863 | 1.4518 | 1175 | 27.75 | 1.011
323.15 K, x1 = 0.5447 | 871.5 | 1.451 | 1165 | 27.64 | 1.201
323.15 K, x1 = 0.6624 | 879.9 | 1.4433 | 1156 | 27.53 | 1.354
323.15 K, x1 = 0.7667 | 886.6 | 1.4363 | 1146 | 27.44 | 1.521
323.15 K, x1 = 0.8388 | 891.3 | 1.4285 | 1138 | 27.35 | 1.812
323.15 K, x1 = 0.9219 | 896.9 | 1.4225 | 1130 | 27.24 | 2.082
323.15 K, x1 = 1 | 901 | 1.4151 | 1121 | 27.12 | 2.67
